We go through four molecules from paper PMC7026418, “The kinase polypharmacology landscape of clinical PARP inhibitors” (Scientific Reports, 2020).

Molecules are shown by their SMILES. Read-outs that look alike come from different tables or passages of the source.

Some targets named below: ALK(L1196M) (Homo sapiens, UniProt Q9UM73, L1196M); BMPR1A (Homo sapiens, UniProt P36894); KIT(V559D,V654A) (Homo sapiens, UniProt P10721, V559D/V654A).
What all share (assay): biochemical
Set-up in all cases: DiscoveRx KINOMEscan active site-directed competition binding; percent of control kinase bound to immobilised ligand

Another assay addresses T1, AMPK-alpha1 (Homo sapiens, UniProt Q13131).
T1 construct: gene PRKAA1

Another assay concerns the target T2, ARK5 (Homo sapiens, UniProt O60285).
T2 construct: gene NUAK1
T2 sequence (O60285 1-661): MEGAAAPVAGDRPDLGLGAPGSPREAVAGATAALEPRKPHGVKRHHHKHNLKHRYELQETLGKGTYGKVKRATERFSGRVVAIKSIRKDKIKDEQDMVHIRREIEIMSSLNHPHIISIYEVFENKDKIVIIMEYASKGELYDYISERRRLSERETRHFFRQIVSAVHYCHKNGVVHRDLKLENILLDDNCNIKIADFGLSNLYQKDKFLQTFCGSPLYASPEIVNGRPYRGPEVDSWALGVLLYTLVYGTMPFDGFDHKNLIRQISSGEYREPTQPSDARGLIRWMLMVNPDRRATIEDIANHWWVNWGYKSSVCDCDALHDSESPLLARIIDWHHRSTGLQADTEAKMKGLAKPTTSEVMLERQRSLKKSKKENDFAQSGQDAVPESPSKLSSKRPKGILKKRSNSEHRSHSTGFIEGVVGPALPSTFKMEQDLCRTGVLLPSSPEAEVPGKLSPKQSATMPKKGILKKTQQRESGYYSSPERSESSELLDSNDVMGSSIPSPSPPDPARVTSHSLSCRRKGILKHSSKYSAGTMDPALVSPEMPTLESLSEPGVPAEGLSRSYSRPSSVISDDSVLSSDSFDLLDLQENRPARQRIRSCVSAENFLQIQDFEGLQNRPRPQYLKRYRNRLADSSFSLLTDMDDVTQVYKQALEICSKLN

In a further assay the target is T3, BRSK2 (Homo sapiens, UniProt Q8IWQ3).
T3 sequence (Q8IWQ3 1-736): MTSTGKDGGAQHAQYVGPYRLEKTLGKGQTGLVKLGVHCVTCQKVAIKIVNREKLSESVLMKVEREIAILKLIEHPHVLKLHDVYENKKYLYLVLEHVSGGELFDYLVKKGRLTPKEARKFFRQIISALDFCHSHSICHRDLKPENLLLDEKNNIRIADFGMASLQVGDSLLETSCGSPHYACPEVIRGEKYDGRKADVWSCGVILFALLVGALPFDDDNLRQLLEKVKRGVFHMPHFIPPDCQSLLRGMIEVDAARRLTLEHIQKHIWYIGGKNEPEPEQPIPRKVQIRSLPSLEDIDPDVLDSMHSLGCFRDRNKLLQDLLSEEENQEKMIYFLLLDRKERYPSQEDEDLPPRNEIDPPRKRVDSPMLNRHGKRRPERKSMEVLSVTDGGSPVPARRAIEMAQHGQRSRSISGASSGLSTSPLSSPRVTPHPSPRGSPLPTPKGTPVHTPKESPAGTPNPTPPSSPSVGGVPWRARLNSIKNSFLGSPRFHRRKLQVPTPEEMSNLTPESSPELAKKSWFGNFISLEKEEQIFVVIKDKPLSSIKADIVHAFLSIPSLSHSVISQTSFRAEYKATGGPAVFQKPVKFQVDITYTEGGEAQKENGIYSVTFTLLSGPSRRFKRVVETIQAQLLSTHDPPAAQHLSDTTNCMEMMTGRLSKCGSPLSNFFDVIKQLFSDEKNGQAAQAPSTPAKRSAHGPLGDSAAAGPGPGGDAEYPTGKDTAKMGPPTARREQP

In the next assay the target is T4, MYLK4 (Homo sapiens, UniProt Q86YV6).
T4 sequence (Q86YV6 1-388): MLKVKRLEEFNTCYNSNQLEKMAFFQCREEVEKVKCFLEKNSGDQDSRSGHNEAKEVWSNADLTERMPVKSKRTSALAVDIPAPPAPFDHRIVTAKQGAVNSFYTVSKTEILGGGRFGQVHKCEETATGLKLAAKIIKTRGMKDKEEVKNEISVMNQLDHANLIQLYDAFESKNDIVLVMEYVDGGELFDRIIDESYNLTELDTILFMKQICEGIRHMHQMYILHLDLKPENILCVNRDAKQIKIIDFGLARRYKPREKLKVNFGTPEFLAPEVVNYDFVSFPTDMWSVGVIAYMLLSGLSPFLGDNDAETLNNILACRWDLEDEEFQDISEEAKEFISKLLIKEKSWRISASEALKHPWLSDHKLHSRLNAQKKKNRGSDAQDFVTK

The target in the next assay is T5, SGK (Homo sapiens, UniProt O00141).
T5 construct: gene SGK1
T5 sequence (O00141 1-431): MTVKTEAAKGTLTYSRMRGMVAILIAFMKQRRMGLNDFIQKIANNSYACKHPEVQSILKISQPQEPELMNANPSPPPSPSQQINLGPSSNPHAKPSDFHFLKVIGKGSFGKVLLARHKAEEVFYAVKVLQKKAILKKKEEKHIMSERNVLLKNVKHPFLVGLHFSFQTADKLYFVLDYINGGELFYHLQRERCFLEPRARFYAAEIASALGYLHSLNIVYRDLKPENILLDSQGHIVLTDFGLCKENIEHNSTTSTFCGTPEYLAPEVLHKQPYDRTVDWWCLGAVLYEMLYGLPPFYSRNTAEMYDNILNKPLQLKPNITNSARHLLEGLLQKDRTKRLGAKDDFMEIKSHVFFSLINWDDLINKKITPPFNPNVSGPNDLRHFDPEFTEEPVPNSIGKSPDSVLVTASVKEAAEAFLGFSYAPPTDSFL

Setting [1] is: read-out: Niraparib (MK-4827) / %Ctrl @ 10000nM.
[2] abbreviates: read-out: Olaparib / %Ctrl @ 10000nM.
Setting [3] is: read-out: Rucaparib / %Ctrl @ 10000nM, binding competition, % of control.
[4] abbreviates: read-out: Talazoparib (BMN 673) / %Ctrl @ 10000nM.

Sequence of BMPR1A (P36894 whole entry): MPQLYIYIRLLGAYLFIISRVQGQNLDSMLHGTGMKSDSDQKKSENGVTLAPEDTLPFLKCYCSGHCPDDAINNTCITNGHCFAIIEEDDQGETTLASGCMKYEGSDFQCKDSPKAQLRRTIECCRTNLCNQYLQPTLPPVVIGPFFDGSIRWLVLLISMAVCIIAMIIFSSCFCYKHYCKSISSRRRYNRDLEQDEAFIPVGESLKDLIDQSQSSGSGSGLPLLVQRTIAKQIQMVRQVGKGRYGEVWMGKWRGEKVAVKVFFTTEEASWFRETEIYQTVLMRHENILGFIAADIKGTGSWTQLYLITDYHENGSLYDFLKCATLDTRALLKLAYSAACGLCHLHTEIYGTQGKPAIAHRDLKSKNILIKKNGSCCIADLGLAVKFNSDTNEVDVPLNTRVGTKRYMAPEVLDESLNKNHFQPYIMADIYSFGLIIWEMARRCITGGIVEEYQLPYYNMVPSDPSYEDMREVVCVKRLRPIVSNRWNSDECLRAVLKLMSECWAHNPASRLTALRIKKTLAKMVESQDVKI
Sequence of ALK(L1196M) (Q9UM73 whole entry L1196M): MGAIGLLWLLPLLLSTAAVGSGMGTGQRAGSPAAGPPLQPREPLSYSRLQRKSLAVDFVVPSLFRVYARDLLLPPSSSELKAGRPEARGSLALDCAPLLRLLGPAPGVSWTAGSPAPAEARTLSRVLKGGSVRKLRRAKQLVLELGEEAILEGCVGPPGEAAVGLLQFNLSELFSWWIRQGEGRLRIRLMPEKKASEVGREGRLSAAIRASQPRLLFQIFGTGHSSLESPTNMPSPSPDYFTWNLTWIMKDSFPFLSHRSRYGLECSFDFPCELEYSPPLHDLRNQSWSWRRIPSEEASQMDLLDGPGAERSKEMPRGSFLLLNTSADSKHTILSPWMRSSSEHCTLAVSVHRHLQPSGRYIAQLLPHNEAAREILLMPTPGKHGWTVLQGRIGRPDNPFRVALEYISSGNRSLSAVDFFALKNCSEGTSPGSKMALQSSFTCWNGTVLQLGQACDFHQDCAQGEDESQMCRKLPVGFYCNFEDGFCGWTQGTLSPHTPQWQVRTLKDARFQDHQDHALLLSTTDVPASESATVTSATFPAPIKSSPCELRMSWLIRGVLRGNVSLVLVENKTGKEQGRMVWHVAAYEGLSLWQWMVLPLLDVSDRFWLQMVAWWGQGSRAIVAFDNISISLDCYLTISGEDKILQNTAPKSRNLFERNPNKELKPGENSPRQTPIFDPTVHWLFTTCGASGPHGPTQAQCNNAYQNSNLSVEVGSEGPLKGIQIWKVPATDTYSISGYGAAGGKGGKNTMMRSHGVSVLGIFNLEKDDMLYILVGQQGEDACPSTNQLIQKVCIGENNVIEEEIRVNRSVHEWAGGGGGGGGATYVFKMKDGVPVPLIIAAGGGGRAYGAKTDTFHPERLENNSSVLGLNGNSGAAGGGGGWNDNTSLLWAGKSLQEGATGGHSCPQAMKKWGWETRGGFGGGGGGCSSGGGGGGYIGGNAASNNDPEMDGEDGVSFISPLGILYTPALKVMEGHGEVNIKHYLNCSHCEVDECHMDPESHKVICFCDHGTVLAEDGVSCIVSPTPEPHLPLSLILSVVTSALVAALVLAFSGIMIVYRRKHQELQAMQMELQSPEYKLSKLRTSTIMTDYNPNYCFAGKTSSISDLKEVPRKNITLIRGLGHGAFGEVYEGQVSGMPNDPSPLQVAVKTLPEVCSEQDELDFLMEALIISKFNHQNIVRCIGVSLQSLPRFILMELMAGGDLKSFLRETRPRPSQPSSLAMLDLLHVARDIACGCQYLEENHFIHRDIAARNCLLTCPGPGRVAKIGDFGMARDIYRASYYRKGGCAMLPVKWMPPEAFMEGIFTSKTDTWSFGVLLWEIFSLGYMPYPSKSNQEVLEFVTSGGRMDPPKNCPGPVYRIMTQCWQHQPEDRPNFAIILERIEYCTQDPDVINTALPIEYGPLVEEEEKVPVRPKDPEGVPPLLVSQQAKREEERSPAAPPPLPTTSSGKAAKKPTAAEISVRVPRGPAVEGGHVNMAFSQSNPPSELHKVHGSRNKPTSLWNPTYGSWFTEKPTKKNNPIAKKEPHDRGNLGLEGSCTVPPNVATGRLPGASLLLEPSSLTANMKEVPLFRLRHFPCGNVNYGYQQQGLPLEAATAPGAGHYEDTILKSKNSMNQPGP
Sequence of KIT(V559D,V654A) (P10721 whole entry V559D/V654A): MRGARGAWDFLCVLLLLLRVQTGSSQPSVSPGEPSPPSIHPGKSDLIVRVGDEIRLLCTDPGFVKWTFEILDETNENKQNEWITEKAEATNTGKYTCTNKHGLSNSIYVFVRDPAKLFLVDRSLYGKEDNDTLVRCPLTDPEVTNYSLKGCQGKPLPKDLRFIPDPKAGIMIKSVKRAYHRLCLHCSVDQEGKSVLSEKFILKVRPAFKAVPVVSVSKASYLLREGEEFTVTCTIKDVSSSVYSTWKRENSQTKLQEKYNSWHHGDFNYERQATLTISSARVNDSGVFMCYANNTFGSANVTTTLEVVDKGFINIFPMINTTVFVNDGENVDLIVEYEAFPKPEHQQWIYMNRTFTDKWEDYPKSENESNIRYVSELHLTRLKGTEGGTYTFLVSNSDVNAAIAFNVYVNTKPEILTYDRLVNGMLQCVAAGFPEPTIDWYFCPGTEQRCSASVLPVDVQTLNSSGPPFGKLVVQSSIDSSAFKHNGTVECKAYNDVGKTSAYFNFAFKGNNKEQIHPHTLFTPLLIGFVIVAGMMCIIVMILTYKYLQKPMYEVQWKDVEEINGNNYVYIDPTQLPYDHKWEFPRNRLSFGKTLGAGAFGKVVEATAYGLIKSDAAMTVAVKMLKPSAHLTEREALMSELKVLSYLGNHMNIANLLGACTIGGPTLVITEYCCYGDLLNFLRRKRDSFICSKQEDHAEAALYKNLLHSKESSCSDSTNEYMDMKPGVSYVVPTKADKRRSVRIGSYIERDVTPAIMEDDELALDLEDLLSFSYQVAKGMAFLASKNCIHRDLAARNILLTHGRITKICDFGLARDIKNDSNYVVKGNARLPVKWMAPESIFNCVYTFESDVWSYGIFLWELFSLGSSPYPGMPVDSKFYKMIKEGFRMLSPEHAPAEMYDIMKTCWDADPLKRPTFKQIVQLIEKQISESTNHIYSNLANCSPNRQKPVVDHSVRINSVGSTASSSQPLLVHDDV
T1 sequence (Q13131 whole entry): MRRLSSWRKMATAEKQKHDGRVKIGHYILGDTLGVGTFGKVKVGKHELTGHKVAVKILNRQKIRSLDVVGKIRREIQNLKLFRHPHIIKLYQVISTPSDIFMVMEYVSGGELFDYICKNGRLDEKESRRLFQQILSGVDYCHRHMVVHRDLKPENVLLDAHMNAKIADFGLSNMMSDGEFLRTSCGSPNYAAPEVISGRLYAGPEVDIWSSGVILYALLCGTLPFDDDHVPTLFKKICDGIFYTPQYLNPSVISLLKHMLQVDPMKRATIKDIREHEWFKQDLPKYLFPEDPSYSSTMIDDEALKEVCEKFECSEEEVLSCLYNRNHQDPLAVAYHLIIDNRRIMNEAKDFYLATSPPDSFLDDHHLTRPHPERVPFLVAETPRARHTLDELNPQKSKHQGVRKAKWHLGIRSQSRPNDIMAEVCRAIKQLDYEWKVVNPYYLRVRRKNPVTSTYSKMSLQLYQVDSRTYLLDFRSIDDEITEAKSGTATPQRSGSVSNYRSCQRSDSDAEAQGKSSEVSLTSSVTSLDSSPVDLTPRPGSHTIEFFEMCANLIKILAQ

With `NC(=O)c1cccc2cn(-c3ccc([C@@H]4CCCNC4)cc3)nc12` [Niraparib], the percent of control binding at 10 µM at ALK(L1196M) (setting [1]) worked out at 81%; on AMPK-alpha1 (setting [1]), 77%; at ARK5 (setting [1]), 56%; at BMPR1A (setting [1]), 94%; on BRSK2 (setting [1]), 91%; on KIT(V559D,V654A) (setting [1]), 90%. In addition, the percent of control binding at 10 µM stood at 20% at MYLK4 (setting [1]) and 89% on SGK (setting [1]).
Turning to `O=C(c1cc(Cc2n[nH]c(=O)c3ccccc23)ccc1F)N1CCN(C(=O)C2CC2)CC1` [Olaparib], the percent of control binding at 10 µM came out at 83% at ALK(L1196M) (setting [2]); 98% at AMPK-alpha1 (setting [2]); 99% on ARK5 (setting [2]); 100% on BMPR1A (setting [2]); 95% at BRSK2 (setting [2]); 95% at KIT(V559D,V654A) (setting [2]). For the same molecule, the percent of control binding at 10 µM worked out at 92% at MYLK4 (setting [2]) and 97% at SGK (setting [2]).
Turning to `CNCc1ccc(-c2[nH]c3cc(F)cc4c3c2CCNC4=O)cc1` [Rucaparib], the percent of control binding at 10 µM on ALK(L1196M) (setting [3]) was 83%; on AMPK-alpha1 (setting [3]), 92%; on ARK5 (setting [3]), 100%; on BMPR1A (setting [3]) it was 91%; at BRSK2 (setting [3]), 76%; on KIT(V559D,V654A) (setting [3]), 92%. Also, the figures for the percent of control binding at 10 µM at MYLK4 (setting [3]) and at SGK (setting [3]) were 1.3% and 61%, respectively.
On to `Cn1ncnc1[C@H]1c2n[nH]c(=O)c3cc(F)cc(c23)N[C@@H]1c1ccc(F)cc1` [Talazoparib], for which the percent of control binding at 10 µM at ALK(L1196M) (setting [4]) came out at 100%; on AMPK-alpha1 (setting [4]) it was 100%; on ARK5 (setting [4]), 100%; at BMPR1A (setting [4]) it was 100%; at BRSK2 (setting [4]), 63%; at KIT(V559D,V654A) (setting [4]) it was 96%. Also, the percent of control binding at 10 µM on MYLK4 (setting [4]) turned out to be 90%; at SGK (setting [4]) it was 92%.
